In test [1] the test system is rumen fluid. Kind of test: In vitro rumen fluid fermentation assay (Gas Test), methane by gas chromatography. Format: cell-based, cows. Conditions: for Synergistic effect in methane inhibition: combined with iodoform. The protocol:
Various samples of single species, extracts, two-species combinations, and three-species combinations were assessed for their potential to inhibit methane production. This evaluation was carried out using in vitro fermentation assays known as Gas Tests. In each Gas Test, 250 mg of total meal ration (TMR) comprising 30% grass, 30% corn, and 40% complete feed was introduced into 100 ml serum vials as the substrate for the fermentation process. Rumen fluid, obtained from fistulated cows at the University of Reading, was mixed with degassed reaction buffer (1.6 L) and supplemented with Na2S (82 ml). Subsequently, 30 ml of the rumen fluid/buffer mixture was added to each serum vial.
The test substances were dissolved in 100% ethanol, and 100 μl of each test substance was added to the serum vials containing the rumen fluid/buffer mixture. All test substances and controls were examined in triplicate for each experiment. Once the test substances and controls were added, the vials were sealed with butyl rubber stoppers and aluminium crimps, then incubated at 39° C. for 24 hours. Following incubation, gas samples were collected from both the control and test vials, and methane levels were determined using gas chromatography.
For each test compound, the “percentage inhibition of methane produced” was calculated using the following formula: […]
The test substances underwent evaluation in three independent Gas Tests, and an average percentage inhibition was calculated for each substance.
Synergy between substances was determined using the Bliss Independence Model using the following equation: […]
Where IAB is the predicted percentage methane inhibition of both substances together and IA and IB are the observed percentage methane inhibitions of the individual substances. The predicted percentage methane inhibition of both substances (IAB) and the observed percent methane inhibition of both substances (Iob) are used to calculate the Combination index (Ci) as follows:
If the Ci<1 then the two substances are synergistic.
Synergy between substances was determined using the following calculation:
Where IABC is the predicted percentage methane inhibition of the three substances together and IA, IB and IC are the observed percentage methane inhibitions of the individual substances.
The predicted percentage methane inhibition of the three substances (IABC) and the observed percent methane inhibition of the combination of the three substances (Iob) are used to calculate the Combination index (Ci) as follows: […]

The subject of test [2] is Methanococcus maripaludis. Kind of test: Inhibition of methane production by Methanococcus maripaludis culture (pressure drop after 24 h). In kind it is cell-based. Conditions: for Inhibition of methane production by bromoform on its own: bromoform alone at 0.12 μM (very low concentration); for Fold increase of Compound X combined with bromoform as compared to Compound X alone: bromoform 0.12 μM. As to the method: For this experiment, bromoform was prepped at 100 mM by adding 8.75 μl bromoform to 991 μl DMSO. This was diluted 10× to generate a 10 mM solution and further diluted to generate 0.12 mM stock solutions. Compound X stock solutions were prepared in DMSO (except for tannic acid, which was diluted in deionized water), to achieve the desired stock solutions required for testing. The experiment was set up by adding 5 ml of M141 medium (https://www.dsmz.de/microorganisms/medium/pdf/DSMZ_Medium141.pdf) to a screw cap Hungate tube followed by the addition of 5 μl Compound X and/or 5 μl bromoform or 5/10 μl DMSO as follows: • Tube 1: DMSO (10 μl) • Tube 2: Bromoform (5 μl, 0.120 mM) (120 nM final)+5 μl DMSO • Tube 3: Compound X (5 μl stock solution)+5 μl DMSO • Tube 4: Bromoform (5 μl 0.120 mM) (120 nM final)+Compound X (5 μl stock solution)
The concentration of Bromoform was fixed at 0.12 μM.
After the addition of the test substances, 500 μl of an overnight M. maripaludis culture was added to each reaction tube. Each tube was gassed with 80% H2/20% CO2 to 240 kPa and incubated at 37° C. for 24 h.
After the 24 h incubation the pressure inside the tube was measured using a manometer. Given that 5 moles of H2/CO2 are consumed to generate 1 mole of CH4 the drop in pressure observed was used to calculate the amount of methane by the control and test reactions from which a percent inhibition was calculated.
Table 1 below summarises the range of concentrations and the fold increase in inhibition of Compound X when tested with bromoform relative to the level of inhibition for Compound X when tested alone.

[3] abbreviates: Bos taurus, 24 h, read-out: Average of observed methane inhibition (%).
Where [4] appears, read: Bos taurus, sole compound, 25 μM, 24 h, three Gas Tests, read-out: Average of observed methane inhibition (%).

Each structure is given as a SMILES string. Where two headings read alike, the source gives them in different places.

`BrC(Br)Br` [Bromoform, bromoform]: in test [1] (setting [3]), the inhibition at 0.1 µM is 1.3% and the inhibition at 1 µM was found to be 92.4%. Moreover, the “Inhibition of methane production by bromoform on its own” value in test [2] was “too low to inhibit methanogen on its own”. The “Inhibition of methane production by bromoform on its own” value in test [2] (listed as bromoform) is recorded as “does not reduce or inhibit methane production”.
Consider `C=CCSSCC=C` [Diallyl disulfide, diallyl disulfide], for which the inhibition at 25 µM in test [1] (setting [3]) turned out to be 5%. For the same compound, the “Methane inhibition in combination with Bromoform (%)” value (shortened to “Methane inhibition … (%)”) in test [2] (Compound X 15.6 μM-250 μM (range tested) + bromoform 0.12 μM, 24 h) is listed as 88.8%. In addition, the “Fold increase of Compound X combined with bromoform as compared to Compound X alone” value (“Fold increase of Compound X combined” below) in test [2] (Compound X 15.6 μM-250 μM (range tested)) was 88.8 fold. Moreover, in test [2] (Methanococcus maripaludis, 24 h, read-out: Methane inhibition of Compound X as a sole compound (%)), the inhibition at 15.6 µM stood at 1%.
Take `C=CCSSSCC=C` [Diallyl trisulfide, diallyl trisulfide]: the inhibition at 25 µM in test [1] (setting [4]) was determined as 11%. In addition, the “Synergistic effect in methane inhibition” value in test [1] is listed as “synergistic effects were observed”. In addition, in test [2] (Compound X 125 μM + bromoform 0.12 μM, 24 h), the “Methane inhibition … (%)” value stood at 27.1%. The “Fold increase of Compound X combined” value in test [2] (Compound X 125 μM) worked out at 27.1 fold. Further, the inhibition at 125 µM in test [2] (Methanococcus maripaludis, Compound X 125 μM alone, 24 h, read-out: Methane inhibition of Compound X as a sole compound (%)) stood at 1%.
As to `BrCBr` [Dibromomethane, dibromomethane], in test [1] (setting [3]), the inhibition at 0.5 µM was found to be 14.5% and the inhibition at 10 µM worked out at 99%. For the same compound, the “Synergistic effect in methane inhibition” value in test [1] is “synergistic effects were observed”.
In the case of `CCCSSCCC` [Dipropyl disulfide, dipropyl disulfide], the inhibition at 30 µM in test [1] (Bos taurus, sole compound, 30 μM, 24 h, three Gas Tests, read-out: Average of observed methane inhibition (%)) came out at 3%. The “Synergistic effect in methane inhibition” value in test [1] is “synergistic effects were observed”. In addition, the “Methane inhibition … (%)” value in test [2] (Compound X 1 mM + bromoform 0.12 μM, 24 h) was found to be 43.5%. Further, the “Fold increase of Compound X combined” value in test [2] (Compound X 1 mM) is recorded as 1.57 fold. In addition, the inhibition at 1000 µM in test [2] (Methanococcus maripaludis, Compound X 1 mM alone, 24 h, read-out: Methane inhibition of Compound X as a sole compound (%)) is 27.7%.
For the compound `IC(I)I` [Iodoform, iodoform], in test [1] (Bos taurus, sole compound, 2 μM, 24 h, three Gas Tests, read-out: Average of observed methane inhibition (%)), the inhibition at 2 µM is 40.8%. Besides, in test [1] (Bos taurus, sole compound, 10 μM, 24 h, three Gas Tests, read-out: Average of observed methane inhibition (%)), the inhibition at 10 µM came to 98.3%.
In the case of `O=C1C[C@@H](c2ccc(O)cc2)Oc2cc(O)cc(O)c21` [Naringenin], the inhibition at 100 µM in test [1] (Bos taurus, sole compound, 100 μM, 24 h, three Gas Tests, read-out: Average of observed methane inhibition (%)) was found to be 10%; in test [2] (Methanococcus maripaludis, Compound X 100 μM alone, 24 h, read-out: Methane inhibition of Compound X as a sole compound (%)), 1%. The “Synergistic effect in methane inhibition” value in test [1] was “synergistic effects were observed”. In addition, the “Methane inhibition … (%)” value in test [2] (Compound X 100 μM + bromoform 0.12 μM, 24 h) stood at 90.3%. Further, the “Fold increase of Compound X combined” value in test [2] (Compound X 100 μM) is reported as 90.3 fold.
`CCCCCCC(C=O)=Cc1ccccc1` [α-Hexylcinnamaldehyde]: the inhibition at 25 µM in test [1] (setting [4]) worked out at 8%. The “Synergistic effect in methane inhibition” value in test [1] was “synergistic effects were observed”. The “Methane inhibition … (%)” value in test [2] (Compound X 31.25 μM + bromoform 0.12 μM, 24 h) was 97.2%. Moreover, the “Fold increase of Compound X combined” value in test [2] (Compound X 31.25 μM) amounted to 97.2 fold. Also, in test [2] (Methanococcus maripaludis, Compound X 31.25 μM alone, 24 h, read-out: Methane inhibition of Compound X as a sole compound (%)), the inhibition at 31.25 µM was 1%.

The inhibition is the share of the control response that was lost under treatment.
